Kd data for 1 compound are collected here from article PMC12120719, “Targeting Senescence with Apigenin Improves Chemotherapeutic Efficacy and Ameliorates Age‐Related Conditions in Mice” (Advanced Science, 2025).

The assay deals with T1, PRDX6 (peroxiredoxin 6) (Homo sapiens, UniProt P30041).
T1 construct: recombinant human PRDX6 (SinoBiological), immobilized on CM5 chip
T1 sequence (P30041 2-224): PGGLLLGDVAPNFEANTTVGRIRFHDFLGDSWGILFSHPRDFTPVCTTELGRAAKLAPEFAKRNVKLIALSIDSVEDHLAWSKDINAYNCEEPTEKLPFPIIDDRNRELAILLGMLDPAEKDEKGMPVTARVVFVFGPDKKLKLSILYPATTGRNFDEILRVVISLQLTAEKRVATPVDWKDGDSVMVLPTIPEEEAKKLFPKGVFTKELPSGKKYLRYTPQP
In words: SPR (Biacore T200); supported by MST (Kd […]), CETSA, DARTS, biotin-probe pulldown. The class given is binding. In general terms: In SPR one partner is held on a chip, and binding of the other changes the refractive index at the surface.

As to `O=c1cc(-c2ccc(O)cc2)oc2cc(O)cc(O)c12` [apigenin, 4′,5,7‐trihydroxyflavone], the Kd stood at 237 nM. This counts as sub-micromolar.

What is called Kd is the concentration at which binding is half-saturated.
